Test results taken from PubChem BioAssay (NCI).
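Grown in 96-well plates, cells were treated for 48 hours with each compound at five concentrations. Insufficient inhibition: endpoint recorded as highest concentration tested. TGI denotes the concentration required for complete inhibition of growth.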

Key:
Experiment in all cases: DTP human tumour cell line panel, 48 h
MDA-MB-231 breast = test system: MDA-MB-231 breast
SN12C renal = test system: SN12C renal
HCC-2998 colon = test system: HCC-2998 colon
RXF 393 renal = test system: RXF 393 renal
LOX IMVI melanoma = test system: LOX IMVI melanoma
RPMI-8226 leukemia = test system: RPMI-8226 leukemia
IGROV1 ovarian = test system: IGROV1 ovarian
MALME-3M melanoma = test system: MALME-3M melanoma
TK-10 renal = test system: TK-10 renal
UACC-257 melanoma = test system: UACC-257 melanoma
OVCAR-3 ovarian = test system: OVCAR-3 ovarian
K-562 leukemia = test system: K-562 leukemia
PC-3 prostate = test system: PC-3 prostate
MDA-N = test system: MDA-N
SNB-19 CNS = test system: SNB-19 CNS
SW-620 colon = test system: SW-620 colon
MCF7 breast = test system: MCF7 breast
OVCAR-8 ovarian = test system: OVCAR-8 ovarian
SK-MEL-2 melanoma = test system: SK-MEL-2 melanoma
BT-549 breast = test system: BT-549 breast
SK-MEL-28 melanoma = test system: SK-MEL-28 melanoma
SF-539 CNS = test system: SF-539 CNS
SNB-75 CNS = test system: SNB-75 CNS
SK-OV-3 ovarian = test system: SK-OV-3 ovarian
SF-295 CNS = test system: SF-295 CNS
DU-145 prostate = test system: DU-145 prostate
A549 NSCLC = test system: A549 NSCLC
SR leukemia = test system: SR leukemia
HL-60(TB) leukemia = test system: HL-60(TB) leukemia
A498 renal = test system: A498 renal
786-0 renal = test system: 786-0 renal
MDA-MB-435 = test system: MDA-MB-435
HCT-116 colon = test system: HCT-116 colon
MOLT-4 leukemia = test system: MOLT-4 leukemia
NCI-H522 lung = test system: NCI-H522 lung
EKVX NSCLC = test system: EKVX NSCLC
SF-268 CNS = test system: SF-268 CNS
COLO 205 colon = test system: COLO 205 colon
ACHN renal = test system: ACHN renal
OVCAR-4 ovarian = test system: OVCAR-4 ovarian
UACC-62 melanoma = test system: UACC-62 melanoma
CCRF-CEM leukemia = test system: CCRF-CEM leukemia
SK-MEL-5 melanoma = test system: SK-MEL-5 melanoma
CAKI-1 renal = test system: CAKI-1 renal
NCI/ADR-RES ovarian = test system: NCI/ADR-RES ovarian
NCI-H226 lung = test system: NCI-H226 lung
HS 578T breast = test system: HS 578T breast
HOP-62 NSCLC = test system: HOP-62 NSCLC
HOP-92 NSCLC = test system: HOP-92 NSCLC
OVCAR-5 ovarian = test system: OVCAR-5 ovarian
M14 melanoma = test system: M14 melanoma
T-47D breast = test system: T-47D breast
HCT-15 colon = test system: HCT-15 colon
NCI-H23 lung = test system: NCI-H23 lung
U251 CNS = test system: U251 CNS
UO-31 renal = test system: UO-31 renal
KM12 colon = test system: KM12 colon
HT29 colon = test system: HT29 colon

Cc1cccc2c(N)c3cccc(C(=O)NCC[N+](C)(C)Cc4c([N+](=O)[O-])ncn4C)c3nc12
TGI (MDA-MB-231 breast): > 82.1 µM
TGI (SN12C renal): > 100 µM
TGI (HCC-2998 colon): > 95.7 µM
TGI (RXF 393 renal): > 100 µM
TGI (LOX IMVI melanoma): 35.6 µM
TGI (RPMI-8226 leukemia): > 100 µM
TGI (IGROV1 ovarian): > 100 µM
TGI (MALME-3M melanoma): > 100 µM
TGI (TK-10 renal): > 100 µM
TGI (UACC-257 melanoma): > 100 µM
TGI (OVCAR-3 ovarian): > 100 µM
TGI (K-562 leukemia): > 100 µM
TGI (PC-3 prostate): > 100 µM
TGI (MDA-N): > 100 µM
TGI (SNB-19 CNS): > 100 µM
TGI (SW-620 colon): > 100 µM
TGI (MCF7 breast): > 47.3 µM
TGI (OVCAR-8 ovarian): > 95.5 µM
TGI (SK-MEL-2 melanoma): > 100 µM
TGI (BT-549 breast): > 100 µM
TGI (SK-MEL-28 melanoma): > 100 µM
TGI (SF-539 CNS): 36.9 µM
TGI (SNB-75 CNS): > 100 µM
TGI (SK-OV-3 ovarian): > 71.1 µM
TGI (SF-295 CNS): > 100 µM
TGI (DU-145 prostate): > 100 µM
TGI (A549 NSCLC): > 47.9 µM
TGI (SR leukemia): > 100 µM
TGI (HL-60(TB) leukemia): > 44.4 µM
TGI (A498 renal): > 100 µM
TGI (786-0 renal): 37.2 µM
TGI (MDA-MB-435): > 100 µM
TGI (HCT-116 colon): > 90.2 µM
TGI (MOLT-4 leukemia): > 100 µM
TGI (NCI-H522 lung): > 52.9 µM
TGI (EKVX NSCLC): > 100 µM
TGI (SF-268 CNS): > 100 µM
TGI (COLO 205 colon): > 100 µM
TGI (ACHN renal): > 39.5 µM
TGI (OVCAR-4 ovarian): > 72.5 µM
TGI (UACC-62 melanoma): > 100 µM
TGI (CCRF-CEM leukemia): > 100 µM
TGI (SK-MEL-5 melanoma): > 88.8 µM
TGI (CAKI-1 renal): 23.9 µM
TGI (NCI/ADR-RES ovarian): > 100 µM
TGI (NCI-H226 lung): > 100 µM
TGI (HS 578T breast): > 96.1 µM
TGI (HOP-62 NSCLC): > 50.9 µM
TGI (HOP-92 NSCLC): > 100 µM
TGI (OVCAR-5 ovarian): > 100 µM
TGI (M14 melanoma): > 100 µM
TGI (T-47D breast): > 100 µM
TGI (HCT-15 colon): > 100 µM
TGI (NCI-H23 lung): > 70.2 µM
TGI (U251 CNS): > 100 µM
TGI (UO-31 renal): 69.1 µM
TGI (KM12 colon): > 100 µM
TGI (HT29 colon): > 40.4 µM
